From patent US20150119267A1, “INHIBITION OF COLONY STIMULATING FACTOR-1 RECEPTOR SIGNALING FOR THE TREATMENT OF BRAIN CANCER” (SLOAN-KETTERING INSTITUTE FOR CANCER RESEARCH, priority 2012, published 2015)
Entries after “also recorded” stand apart in the source; their conditions may differ.

How the values were obtained:
[1] = tested on: Mrc1; test: Mrc1 expression in primary glioma cultures (flow cytometry); assay type: cell-based, mouse; conditions: CD45+CD11b+ cells
Protocol: Macrodissected tumors were digested to a single cell suspension by incubation for 8-12 minutes at 37° C. as described above. The cell suspension was washed with Neural Stem Cell (NSC) Basal Media (Stem Cell Technologies), and centrifuged at low speed (750 rpm Sorvall Legend RT), to remove debris. To derive mouse primary glioma cultures, the cell pellet was resuspended in DMEM containing 10% FBS (Gibco). These primary cultures were used at early passage (P2-P3), and contain a mixture of different cell types found in gliomas including tumor cells, macrophages, and astrocytes as determined by immunofluorescence staining. Primary glioma cultures were grown for 24 hours on poly-L-lysine coated coverslips (BD Biocoat). Cells were then fixed with 4% PFA in 0.1M phosphate buffer overnight at 4° C., permeabilized with 0.1% Triton-X for 5 minutes and blocked with 0.5% PNB for at least one hour. […]
For mouse primary glioma cultures (containing a mixed population of tumor cells, TAMs, astrocytes etc.; see FIG. 15), 1×10^6 cells were cultivated in DMEM+10% FBS in the presence of the CSF-1R inhibitor or DMSO as vehicle (n=6 independently isolated cultures). […] Cells were counted and incubated with 1 μl of Fc Block (BD Pharmingen) per 10^6 cells for at least 15 minutes at 4° C. […]

[2] = tested on: primary bone marrow-derived macrophages (BMDMs); test: MTT assay, primary BMDMs; assay type: cell-based, mouse; conditions: wild-type C57BL/6 BMDMs in culture, 67 nM
Protocol: (§1) Cell growth rate was determined using the MTT cell proliferation kit (Roche). […] Media was changed every 48 hours. BMDM and CRL-2467 cells were supplemented with 10 ng/ml and 30 ng/ml recombinant mouse CSF-1 respectively unless otherwise indicated. Ten μl of MTT labeling reagent was added to each well and then incubated for 4 hours at 37° C., followed by the addition of 100 μl MTT solubilization reagent overnight. The mixture was gently resuspended and absorbance was measured at 595 nm and 750 nm on a SPECTRAMAX 340 pc plate reader (Molecular Devices).

[3] = tested on: normal microglia; test: Microglia in normal non-tumor bearing mice, flow cytometry; assay type: in vivo, mouse; conditions: 200 mg/kg once per day for 7 days
Protocol: Data are presented as mean±SEM. […] Circles represent individual mice (n=5-6 per group). P values were obtained using unpaired two-tailed Student's t-test; *P<0.05.
As many immune cell epitopes are papain-sensitive, for investigation of immune cell infiltration by flow cytometric analysis, tumors were digested to a single cell suspension by incubation for 10 minutes at 37° C. with 5 mL of 1.5 mg/ml collagenase III (Worthington) and 0.06 mg/mL DNase I in 1× Hanks Balanced Salt Solution (HBSS) with calcium and magnesium. The cell suspension was then washed with PBS and passed through a 40 μm mesh to remove undigested tissue. To remove myelin debris, the cell pellet was resuspended at room temperature in 15 ml of 25% Percoll prepared from stock isotonic Percoll (90% Percoll [Sigma], 10% 10× HBSS), and then spun for 15 minutes at 1500 rpm (Sorvall Legend RT) with accelerator and brake set to 1. The cell pellet was then washed with lx HBSS prior to being resuspended in FACS buffer.
After counting, cells were incubated with 1 μl of Fc Block for every million cells for at least 15 minutes at 4° C. Cells were then stained with the appropriate antibodies for 10 minutes at 4° C., washed with FACS buffer, and resuspended in FACS buffer containing DAPI (5 mg/ml diluted 1:5000) for live/dead cell exclusion.

[4] = BLZ945 pharmacokinetics, blood-brain barrier; assay type: in vivo, mouse; conditions: single dose 200 mg/kg oral gavage
Protocol: The CSF-1R inhibitor was obtained from the Novartis Institutes for Biomedical Research (Emeryville, Calif.). The drug was formulated in 20% captisol at a concentration of 12.5 mg/ml. The vehicle control, 20% captisol, was processed in the same manner. […] To determine if the drug was able to cross the blood-brain barrier, tumor-bearing mice were treated with a single dose of the CSF-1R inhibitor and sacrificed at different time points post-treatment. Plasma, and the left (contralateral) and right (tumor-bearing) hemispheres of the brain were snap frozen in liquid nitrogen for subsequent analysis of CSF-1R inhibitor concentrations in the tissue. For long-term survival studies, dosing begun at 17 days/2.5 weeks post-injection of RCAS-PDGF-B-HA. For the fixed time-point studies, mice underwent MRI scans at 4-5 weeks post-injection of RCAS-PDGF-B-HA, as previously described (5). To determine tumor volume, regions of interest (ROI) were circumscribed on T2 weighted images and their corresponding area in mm^2 was multiplied by the slice height of 0.7 mm. The total tumor volume is the sum of the ROI volume in each slice, and the volume for the first and last slice in which the tumor appears is halved to approximate the volume of a trapezoid. When tumor volume was in the range of 4.5-40 mm^3, animals were randomly assigned to treatment groups. […]

[5] = biological target: >200 kinases; test: biochemical kinase panel; conditions: read-out: biochemical IC50 values for >200 kinases tested; except cKIT and PDGFRβ; data not shown
[6] = tested on: Ink4a/Arf−/− BMDMs; test: MTT assay, Nestin-Tv-a;Ink4a/Arf−/− BMDMs; assay type: cell-based, mouse
Protocol: as §1

## CNC(=O)c1cc(Oc2ccc3nc(N[C@@H]4CCCC[C@H]4O)sc3c2)ccn1 [BLZ945]
[1]
  Mrc1 in primary glioma cultures containing TAMs: decreased
[2]
  macrophage (BMDM) survival / viability: significantly decreases the viability; also recorded: blocks macrophage survival
[3]
  normal microglia in non-tumor bearing mice: depletes normal microglia
[4]
  blood-brain barrier crossing: able to effectively cross the blood-brain barrier
[4]; all time points tested
  concentration in contralateral non-tumor bearing hemisphere versus tumor: comparable to the level achieved in the tumor
[5]
  IC50: > 10 µM
[6]
  BMDM survival: blocked the survival
